Laboratory results reported in patent US4604239A, “Antibiotics” (Eli Lilly and Company, priority 1985, dated 1986).
“And” between values parts separate entries of the source, which are not always exact repeats. Equal entries are not always repeated. Where two headings read alike, the source gives them in different places.

How the values were obtained:
Clostridium difficile = format: cell-based
Staphylococcus aureus = test: agar-dilution MIC; format: cell-based
Fusobacterium symbiosum = test: agar-dilution MIC; format: cell-based; conditions: Fusobacterium symbiosum 1470; Table 14
[1] = tested on: Peptostreptococcus intermedius; test: agar-dilution MIC; format: cell-based; conditions: Peptostreptococcus intermedius 1264; Table 14
[2] = tested on: Peptostreptococcus anaerobius; test: agar-dilution MIC; format: cell-based; conditions: Peptostreptococcus anaerobius 1428; Table 14
[3] = tested on: Peptococcus asaccharolyticus; test: agar-dilution MIC; format: cell-based; conditions: Peptococcus asaccharolyticus 1302; Table 14
Description: The MIC values were determined by the agar-dilution method, and are recorded in Table 15, which follows.

Peptococcus prevoti = test: agar-dilution MIC; format: cell-based; conditions: Peptococcus prevoti 1281; Table 14
Clostridium septicum = test: agar-dilution MIC; format: cell-based; conditions: Clostridium septicum 1128; Table 14
Hemophilus influenzae = test: agar-dilution MIC; format: cell-based; conditions: Table 17
electrometric titration = format: physicochemical; conditions: electrometric titration in 66% dimethylformamide in water
From the text: Antibiotic A41030 factor A is a white, crystalline solid.

Bacteroides corrodens = test: agar-dilution MIC; format: cell-based; conditions: Bacteroides corrodens 1874; Table 14
[4] = tested on: Bacteroides melaninogenicus; test: agar-dilution MIC; format: cell-based; conditions: Bacteroides melaninogenicus 2736; Table 14
Clostridium perfringens = format: cell-based; conditions: Clostridium perfringens 81; Table 14
Eubacterium aerofaciens = test: agar-dilution MIC; format: cell-based; conditions: Eubacterium aerofaciens 1235; Table 14
solubility = format: physicochemical
Streptococcus pyogenes = test: agar-dilution MIC; format: cell-based; conditions: Streptococcus pyogenes C203; Table 17
From the text: (§1) The agar-dilution procedure described by the International Collaborative study (ICS) group was used to determine the minimum inhibitory concentrations (MIC's).

Streptococcus pneumoniae = test: agar-dilution MIC; format: cell-based; conditions: Streptococcus pneumoniae Park I; Table 17
From the text: as §1

Bacteroides fragilis = test: agar-dilution MIC; format: cell-based; conditions: Table 14
From the text: as §1

[5] = tested on: Staphylococcus epidermidis; test: agar-dilution MIC; format: cell-based; conditions: Staphylococcus epidermidis EPI1; Table 17
From the text: as §1

[6] = tested on: Streptococcus sp. (Group D); test: agar-dilution MIC; format: cell-based; conditions: Table 17
From the text: as §1

Staph. aureus = test: experimental bacterial infection in mice; format: in vivo; conditions: two doses subcutaneously
Description: (§2) All of the A41030 factors tested have shown in vivo antimicrobial activity against experimental bacterial infections. When two doses of test compound were administered subcutaneously to mice in illustrative infections, the activity observed is measured as an ED50 value [effective dose in mg./kg. to protect fifty percent of the test animals: See Warren Wick, et al., J. Bacteriol. 81, 233-235 (1961)].

[7] = tested on: Fusobacterium necrophorum; test: agar-dilution MIC; format: cell-based; conditions: Fusobacterium necrophorum 6054A; Table 14
Bacteroides vulgatis = test: agar-dilution MIC; format: cell-based; conditions: Bacteroides vulgatis 1211; Table 14
Propionibacterium acnes = test: agar-dilution MIC; format: cell-based; conditions: Propionibacterium acnes 79; Table 14
From the text: Antibiotic A41030 factors A, B and C have also been tested and found to be active against a genus of anaerobic bacteria identified as Propionibacterium acnes.

[8] = tested on: Bacteroides thetaiotaomicron; format: cell-based; conditions: Bacteroides thetaiotaomicron 1438; Table 14
From the text: as §1

S. pyogenes = test: experimental bacterial infection in mice; format: in vivo; conditions: S. pyogenes infection in mice; two doses subcutaneously
S. pneumoniae = test: experimental bacterial infection in mice; format: in vivo; conditions: two doses subcutaneously
Description: as §2

[9] = Clostridium difficile 78, Table 16
[10] = Clostridium difficile 107B, Table 16
[11] = Clostridium difficile 111F, Table 16
[12] = Clostridium difficile 1153, Table 16
[13] = Clostridium difficile 2634, Table 16
[14] = Clostridium difficile 3424-5B, Table 16
[15] = Clostridium difficile 3816, Table 16
[16] = Clostridium difficile 6890, Table 16
[17] = Clostridium difficile 8484, Table 16
[18] = Clostridium difficile A-194, Table 16
[19] = Clostridium difficile A-195, Table 16
[20] = Clostridium difficile A-196, Table 16
[21] = Clostridium difficile A-279, Table 16
[22] = Clostridium difficile A-280, Table 16
[23] = Clostridium difficile A-281, Table 16
[24] = Clostridium difficile WAL-2112, Table 16
[25] = Clostridium difficile WAL-3657, Table 16
[26] = Clostridium difficile WAL-4268, Table 16
[27] = Staphylococcus aureus S13E, Table 17

Substance: A41030 factor E
- MIC (Clostridium difficile; [9]): 0.5 µg/mL
- MIC (Clostridium difficile; [10]): 0.5 µg/mL
- MIC (Clostridium difficile; [11]): 0.5 µg/mL
- MIC (Clostridium difficile; [12]): 1.0 µg/mL
- MIC (Clostridium difficile; [13]): 1.0 µg/mL
- MIC (Clostridium difficile; Clostridium difficile 2994, Table 14): 0.5 µg/mL
- MIC (Clostridium difficile; [14]): 0.5 µg/mL
- MIC (Clostridium difficile; [15]): 0.5 µg/mL
- MIC (Clostridium difficile; Clostridium difficile 3950D, Table 16): 0.5 µg/mL
- MIC (Clostridium difficile; [16]): 0.5 µg/mL
- MIC (Clostridium difficile; [17]): 0.5 µg/mL
- MIC (Clostridium difficile; [18]): 0.5 µg/mL
- MIC (Clostridium difficile; [19]): 0.5 µg/mL
- MIC (Clostridium difficile; [20]): 1.0 µg/mL
- MIC (Clostridium difficile; [21]): 0.5 µg/mL
- MIC (Clostridium difficile; [22]): 0.5 µg/mL
- MIC (Clostridium difficile; [23]): 1.0 µg/mL
- MIC (Clostridium difficile; [24]): 0.5 µg/mL
- MIC (Clostridium difficile; [25]): 0.5 µg/mL
- MIC (Clostridium difficile; [26]): 0.5 µg/mL
- MIC (Staphylococcus aureus; [27]): 0.25 µg/mL
- MIC (Staphylococcus aureus; in µg/mL): 0.125 and 0.25
- MIC (Fusobacterium symbiosum): 1.0 µg/mL
- MIC [1]: 32 µg/mL
- MIC [2]: 32 µg/mL
- MIC [3]: ≤ 0.25 µg/mL
- MIC (Peptococcus prevoti): 32 µg/mL
- MIC (Clostridium septicum): 0.5 µg/mL
- MIC (Hemophilus influenzae; Haemophilus influenzae 76): 8 µg/mL
- MIC (Hemophilus influenzae; Haemophilus influenzae C.L.): 8 µg/mL
- possibly additional pKa's (electrometric titration): > 10
- MIC (Bacteroides corrodens): 64 µg/mL
- MIC [4]: 32 µg/mL
- MIC (Clostridium perfringens): 1.0 µg/mL
- MIC (Eubacterium aerofaciens): 0.5 µg/mL
- solubility (solvents) (solubility): soluble in the same solvents as factor A
- MIC (Streptococcus pyogenes): 0.25 µg/mL
- MIC (Streptococcus pneumoniae): 0.25 µg/mL
- MIC (Bacteroides fragilis; Bacteroides fragilis 111): 64 µg/mL
- MIC (Bacteroides fragilis; Bacteroides fragilis 1877): 32 µg/mL
- MIC (Bacteroides fragilis; Bacteroides fragilis 1936B): 64 µg/mL
- MIC [5]: 0.25 µg/mL
- MIC ([6]; Streptococcus sp. Group D 9960): 1 µg/mL
- MIC ([6]; Streptococcus sp. Group D X66): 1 µg/mL
- ED50 (Staph. aureus): < 0.31 mg/kg
- MIC [7]: 0.5 µg/mL
- MIC (Bacteroides vulgatis): 32 µg/mL
- MIC (Propionibacterium acnes): 0.5 µg/mL
- MIC [8]: 64 µg/mL

Substance: A41030 factor F
- MIC (Clostridium difficile; [9]): 1.0 µg/mL
- MIC (Clostridium difficile; [10]): 1.0 µg/mL
- MIC (Clostridium difficile; [11]): 2 µg/mL
- MIC (Clostridium difficile; [12]): 2 µg/mL
- MIC (Clostridium difficile; [13]): 2 µg/mL
- MIC (Clostridium difficile; [14]): 1.0 µg/mL
- MIC (Clostridium difficile; [15]): 1.0 µg/mL
- MIC (Clostridium difficile; [16]): 1.0 µg/mL
- MIC (Clostridium difficile; [17]): 1.0 µg/mL
- MIC (Clostridium difficile; [18]): 1.0 µg/mL
- MIC (Clostridium difficile; [19]): 1.0 µg/mL
- MIC (Clostridium difficile; [20]): 2 µg/mL
- MIC (Clostridium difficile; [21]): 1.0 µg/mL
- MIC (Clostridium difficile; [22]): 1.0 µg/mL
- MIC (Clostridium difficile; [23]): 2 µg/mL
- MIC (Clostridium difficile; [24]): 1.0 µg/mL
- MIC (Clostridium difficile; [25]): 1.0 µg/mL
- MIC (Clostridium difficile; [26]): 1.0 µg/mL
- MIC (Staphylococcus aureus; [27]): 1 µg/mL
- MIC (Staphylococcus aureus; in µg/mL): 0.5 and 1
- MIC (Fusobacterium symbiosum): 1.0 µg/mL
- MIC [1]: 1.0 µg/mL
- MIC [2]: 32 µg/mL
- MIC [3]: ≤ 0.25 µg/mL
- MIC (Peptococcus prevoti): 32 µg/mL
- MIC (Clostridium septicum): 1.0 µg/mL
- MIC (Hemophilus influenzae; Haemophilus influenzae 76): 32 µg/mL
- MIC (Hemophilus influenzae; Haemophilus influenzae C.L.): 32 µg/mL
- possibly additional pKa's (electrometric titration): > 10
- MIC (Bacteroides corrodens): 32 µg/mL
- MIC [4]: 1.0 µg/mL
- MIC (Clostridium perfringens): 1.0 µg/mL
- MIC (Eubacterium aerofaciens): 1.0 µg/mL
- solubility (solvents) (solubility): soluble in the same solvents as factor A
- MIC (Streptococcus pyogenes): 2 µg/mL
- MIC (Streptococcus pneumoniae): 2 µg/mL
- MIC (Bacteroides fragilis; Bacteroides fragilis 111): 32 µg/mL
- MIC (Bacteroides fragilis; Bacteroides fragilis 1877): 32 µg/mL
- MIC (Bacteroides fragilis; Bacteroides fragilis 1936B): 32 µg/mL
- MIC [5]: 0.25 µg/mL
- MIC ([6]; Streptococcus sp. Group D 9960): 4 µg/mL
- MIC ([6]; Streptococcus sp. Group D X66): 4 µg/mL
- ED50 (S. pyogenes): > 5.0 mg/kg
- ED50 (S. pneumoniae): > 5.0 mg/kg
- ED50 (Staph. aureus): < 0.31 mg/kg
- MIC [7]: 1.0 µg/mL
- MIC (Bacteroides vulgatis): 32 µg/mL
- MIC (Propionibacterium acnes): 1.0 µg/mL
- MIC [8]: 64 µg/mL
